{"source": "patent US11278555B2", "about": "“Combinational therapies for treatment of cancer comprising a bacteriochlorophyll derivative” (Yeda Research and Development Co. Ltd., priority 2016, dated 2022)", "tested_on": "s.c. 4T1-luc breast tumors", "test": "WST11 VTP with or without single dose CTX in mice bearing s.c. 4T1-luc tumors in the hind leg (Scheme 4)", "assay_type": "in vivo, Balb/c mice", "description": "• (i) Bacteriochlorophyll Derivatives—The Bchl derivatives and RGD-conjugates thereof were provided by Steba Biotech (Rehovot, Israel). […] Concentration was verified by spectrophotometric measurement. STL-7012 was provided as dipotassium salt. Working solution was prepared by dissolving STL-7012 K^+ salt in 5% mannitol solution (1 mg/ml). […] WST11 was supplied as a powder and kept in the dark at −20° C. Stock was prepared by dissolving WST11 in DDW containing 5% glucose and 0.67% mannitol, aliquoted and lyophilized. Working solution was reconstituted with DDW and the concentration of solution was confirmed spectrophotometrically. Alternatively, Clinical WST11 (batch: P00611, and 10-130611) was supplied as lyophilized formulation. Material was dissolved in 5% dextrose, aliquoted and stored at −20° C. […] Aliquots were thawed, diluted with saline to a desired concentration and used on the same day at a dose of 75 mg/kg. Cyclophosphamide (CTX, Endoxan®, Baxter Oncology Gmbh, Germany) was purchased from a local pharmacy. A stock solution of 20 mg/ml was prepared by dissolving in 0.9% NaCl, aliquoted and stored at −20° C. Aliquots were thawed, diluted with saline if needed to a desired concentration and used on the same day prepared at indicated doses. • (iii) Murine cell lines—Mammary luciferase (luc)-labeled 4T1 cell line (4T1-Luc) was a kind gift from Dr. Zvi Granot (Faculty of Medicine, The Hebrew University of Jerusalem, Israel); melanoma B16-F10 cell line was obtained from the American Type Culture Collection (ATCC, Manassas, Va.); bladder MB49 cell line was a kind gift from James Allison (MSKCC, New York, USA), and luc-labeled MB49-cell line was established using the murine stem cell virus (MSCV)-puromycin-luc-GFP construct (kindly provided by Dr. Emily Cheng, Human Oncology and Pathogenesis Program, MSKCC). 4T1 and MB49 cells were maintained in DMEM medium and B16-F10 cells in RPMI medium supplemented with 1 mmol/L sodium pyruvate, 10% fetal calf serum (FCS), 250 μg/ml hygromycin, 0.06 mg/ml penicillin and 0.1 mg/ml streptomycin. The cells were grown as monolayer at 37° C. in a humidified atmosphere (5% CO2, 95% air). • (iv) Murine tumor models—Female, Balb/c mice (6-8 week old) were grafted either subcutaneously (s.c.) into the right hind leg or orthotopically with 1×10^6 4T1 cells suspended in 50 or 1000 PBS. […] Whole body imaging of luciferase-transfected tumors and metastases were recorded five minutes following 75 mg Kg^−1 intraperitoneal (i.p.) injection of D-luciferin with respective filter sets. • (vi) PDT treatment protocol: 4T1-Luc cells were grafted in the mammary pad of Balb/c mice. […] Ablation of primary tumors was assessed every 7 days by imaging the tumor's luciferase-mediated bioluminescence signal, using IVIS.", "data": [{"compound": "CCC1c2cc3[n-]c(c(CC(=O)OC)c4nc(cc5[n-]c(cc(n2)C1C)c(C(C)=O)c5C)C(C)C4CCC(=O)[O-])c(C(=O)NCCS(=O)(=O)[O-])c3C.[K+].[K+].[Pd+2]", "note": "(stereo not drawn) [WST11, Palladium 3^1-oxo-15-methoxycarbonylmethyl-rhodobacteriochlorin 13^1-(2-sulfoethyl) amide dipotassium salt]", "values": [{"measurement": "primary tumor growth", "setting": "CTX 50 or 150 mg/kg alone, WST11 VTP at low light intensity (100 mW/cm^2) alone, or combination", "value": "unable to suppress primary tumor growth"}, {"measurement": "lung metastases", "setting": "VTP alone, even when primary tumor completely ablated", "value": "most of the mice subjected to VTP alone developed lung metastases"}, {"measurement": "time to tumor regrowth", "setting": "WST11 VTP at high light dose (150 mW/cm^2)", "value": "doubled"}]}]}
